Data as given in the supplement of paper PMC10307832.

How the values were obtained:
Assay in all cases: relative viability (nuclei count vs DMSO), 5 days (fraction); higher = more cells survive
[1] = compound: CN1C=C(C2=CC=CC=C21)/C=C\3/C4=C(C=CC=N4)NC3=O
Summary of the method: (§1)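 Five library-drug doses spaced by √10 were pinned onto vehicle-anchored 1536-well plates of lung cancer cell lines that had been kept overnight at 37 °C. Cells went 5 days without medium change, then were fixed, permeabilised and Hoechst-stained together, imaged at 4× and counted by MetaXpress. Viability is the ratio of treated-well to vehicle-well nuclei, taken as a median over plates. Plates required control CV below 25% and at least one doubling.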

[2] = compound: CC(=O)Nc1cccc(-n2c(=O)n(C3CC3)c(=O)c3c(Nc4ccc(I)cc4F)n(C)c(=O)c(C)c32)c1 [Trametinib]
Summary of the method: as §1

[3] = compound: CC(=O)Nc1cccc(-n2c(=O)n(C3CC3)c(=O)c3c(Nc4ccc(I)cc4F)n(C)c(=O)c(C)c32)c1 [Trametinib] + CS(=O)(=O)CCNCc1ccc(-c2ccc3ncnc(Nc4ccc(OCc5cccc(F)c5)c(Cl)c4)c3c2)o1 [Lapatinib] (partner 2 µM)
Summary of the method: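 Cells from lung cancer lines were seeded into 1536-well plates and, one day later, dosed by pin tool. Treatments were either a single drug or a fixed dose of an anchor drug with five library-drug doses (not always all listed) in √10 steps. After 5 days, nuclei were stained in a one-step fixation (final 0.05% Triton X-100, 1% formaldehyde, 1 ug/ml Hoechst) and counted on 4× images, and relative viability is the treated-to-vehicle nuclei ratio, as the median of duplicate plates.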

| Cell Line | relative viability ([1]; 0.02 µM) | relative viability ([1]; 0.06325 µM) | relative viability ([1]; 0.2 µM) | relative viability ([1]; 0.6325 µM) | relative viability ([1]; 2 µM) | relative viability ([2]; 0.0025 µM) | relative viability ([2]; 0.007906 µM) | relative viability ([2]; 0.02 µM, anchor plate) | relative viability ([2]; 0.025 µM) | relative viability ([2]; 0.07906 µM) | relative viability ([2]; 0.25 µM) | relative viability ([3]; first compound 0.0025 µM) | relative viability ([3]; first compound 0.007906 µM) | relative viability ([3]; first compound 0.025 µM) | relative viability ([3]; first compound 0.07906 µM) | relative viability ([3]; first compound 0.25 µM) |
| --- | --- | --- | --- | --- | --- | --- | --- | --- | --- | --- | --- | --- | --- | --- | --- | --- |
| LOU-NH91 | 0.902 | 0.825 | 0.844 | 0.856 | 0.95 | 0.926 | 0.923 | 0.799 | 0.761 | 0.8 | 0.366 | 0.745 | 0.736 | 0.603 | 0.753 | 0.414 |
| A549 | 0.935 | 0.992 | 0.767 | 0.923 | 0.989 | 0.864 | 0.658 |  | 0.375 | 0.278 | 0.14 | 0.749 | 0.667 | 0.618 | 0.499 | 0.0742 |
| EMC-BAC-2 | 1.1 | 0.92 | 0.89 | 0.798 | 0.673 | 1.2 | 1.01 | 0.859 | 0.775 | 0.61 | 0.635 | 0.866 | 0.872 | 0.711 | 0.92 | 0.626 |
| ChaGo-K-1 | 0.991 | 1 | 0.784 | 1.02 | 0.996 | 0.999 | 0.921 | 0.917 | 0.951 | 0.861 | 0.764 |  |  |  |  |  |
| NCI-H2023 | 1.01 | 0.962 | 0.768 | 0.945 | 0.898 | 0.964 | 0.765 | 0.611 | 0.655 | 0.632 | 0.334 | 0.947 | 0.356 | 0.383 | 0.579 | 0.181 |
| EKVX | 0.952 | 0.812 | 0.801 | 0.885 | 0.983 | 0.852 | 0.766 | 0.364 | 0.583 | 0.491 | 0.395 | 0.177 | 0.154 | 0.136 | 0.155 | 0.157 |
| NCI-H441 | 1.19 | 0.935 | 1.08 | 1.01 | 1.02 | 0.959 | 0.908 | 0.522 | 0.667 | 0.605 | 0.246 |  |  |  |  |  |
| NCI-H2342 | 0.938 | 0.963 | 0.955 | 0.878 | 0.906 | 0.958 | 0.915 | 0.847 | 0.554 | 0.749 | 0.855 |  |  |  |  |  |
| NCI-H1648 | 0.603 | 0.885 | 0.812 | 0.601 | 0.671 | 0.776 | 0.864 | 0.505 | 0.809 | 0.541 | 0.455 |  |  |  |  |  |
| NCI-H522 | 0.89 | 1.13 | 0.869 | 0.944 | 0.883 | 1.01 | 1.04 | 0.776 | 0.595 | 0.756 | 0.63 |  |  |  |  |  |
| NCI-H1623 | 0.815 | 1.02 | 0.735 | 0.85 | 0.912 | 0.839 | 0.74 |  | 0.552 | 0.569 | 0.523 |  |  |  |  |  |
| LCLC-103H | 0.963 | 0.933 | 0.976 | 0.98 | 0.959 | 0.92 | 0.869 | 0.672 | 0.814 | 0.697 | 0.685 |  |  |  |  |  |
